In paper PMC8975978, “Bioassay-guided isolation of cytotoxic constituents from the flowers of Aquilaria sinensis” (Natural Products and Bioprospecting, 2022):
Converted amounts (≈) assume the structure as drawn. Where two headings read alike, the source gives them in different places.

Key:
[1] = test system: human normal bronchial epithelial BEAS-2B cells; assay: MTS cytotoxicity assay, normal BEAS-2B; type: cell-based
Experimental: (§1) It had better inhibition against lung cancer cell lines than against other cancer cell lines (Table 1). Thus, the next bioactivity-guided separations were conducted according to the cytotoxicities of the fractions against lung cancer cell lines (A-549, NCI-H520, and SPC-A-1), as well as normal BEAS-2B cells and paclitaxel-resistant lung cancer A549/Taxol cells.
(§2) The cytotoxicity activities were evaluated by MTS assay as previously described.

[2] = test system: human lung squamous cell carcinoma NCI-H520 cells; assay: MTS cytotoxicity assay, NCI-H520; type: cell-based
Experimental: as §1, §2

[3] = test system: human lung adenocarcinoma SPC-A-1 cells; assay: MTS cytotoxicity assay, SPC-A-1; type: cell-based
Experimental: as §1, §2

[4] = test system: human lung adenocarcinoma A549 cells; assay: MTS cytotoxicity assay, A549; type: cell-based
Experimental: as §1, §2

[5] = test system: paclitaxel-resistant A549 (A549/Taxol) cells; assay: MTS cytotoxicity assay, A549/Taxol; type: cell-based, human
Experimental: as §1, §2

SK-MEL cells = test system: SK-MEL cells; design: method as in PMID 28754541; settings: cited from earlier work
[6] = test system: human breast cancer MCF-7 cells; assay: MTS cytotoxicity assay, MCF-7; type: cell-based; settings: Table 1, MCF-7
Experimental: as §1, §2

[7] = test system: human breast cancer MDA-MB-231 cells; assay: MTS cytotoxicity assay, MDA-MB-231; type: cell-based; settings: Table 1, MDA-MB-231
Experimental: as §1, §2

[8] = test system: human T-cell leukemia MT4 cells; assay: MTS cytotoxicity assay, MT4; type: cell-based; settings: Table 1, MT4
Experimental: as §1, §2

[9] = test system: human colon cancer SW-480 cells; assay: MTS cytotoxicity assay, SW480; type: cell-based; settings: Table 1, SW480
Experimental: as §1, §2

[10] = test system: human leukemia HL-60 cells; assay: MTS cytotoxicity assay, HL-60; type: cell-based; settings: Table 1, HL-60
Experimental: as §1, §2

[11] = test system: human large cell lung carcinoma NCI-H460 cells; assay: MTS cytotoxicity assay, NCI-H460; type: cell-based; settings: Table 1, NCI-H460
Experimental: as §1, §2

[12] = test system: human hepatoma SMMC-7721 cells; assay: MTS cytotoxicity assay, SMMC-7721; type: cell-based; settings: Table 1, SMMC-7721
[13] = test system: human neuroblastoma SH-SY5Y cells; assay: MTS cytotoxicity assay, SH-SY5Y; type: cell-based; settings: Table 1, SH-SY5Y
Experimental: as §1, §2

[14] = test system: human small cell lung cancer NCI-H446 cells; assay: MTS cytotoxicity assay, NCI-H446; type: cell-based; settings: Table 1, NCI-H446
Experimental: as §1, §2

[15] = test system: human cervical cancer HeLa cells; assay: MTS cytotoxicity assay, HeLa; type: cell-based; settings: Table 1, HeLa
Experimental: as §1, §2

[16] = test system: human prostate cancer PC-3 cells; assay: MTS cytotoxicity assay, PC-3; type: cell-based; settings: Table 1, PC-3
Experimental: as §1, §2

[17] = test system: human ovarian carcinoma SK-OV-3 cells; assay: MTS cytotoxicity assay, SK-OV-3; type: cell-based; settings: Table 1, SK-OV-3
Experimental: as §1, §2

[18] = test system: human colon cancer Caco2 cells; assay: MTS cytotoxicity assay, Caco2; type: cell-based; settings: Caco-2, Table 1, Caco2
[19] = test system: SPC-A-1, NCI-H520, A549 and A549/Taxol cell lines; assay: MTS cytotoxicity assay, four tested lung cancer cell lines together; type: cell-based, human
Experimental: Thus, the next bioactivity-guided separations were conducted according to the cytotoxicities of the fractions against lung cancer cell lines (A-549, NCI-H520, and SPC-A-1), as well as normal BEAS-2B cells and paclitaxel-resistant lung cancer A549/Taxol cells.
Isolates 1–6 were evaluated for their cytotoxicities against SPC-A-1, NCI-H520, A549, A549/Taxol, and BEAS-2B cell lines (Table 5).
as §2

[20] = Homo sapiens, BEAS-2B, Table 5, BEAS-2B normal cells, read-out: IC50
[21] = Homo sapiens, Table 5, NCI-H520, read-out: IC50
[22] = Homo sapiens, SPCA1, Table 5, SPC-A-1, read-out: IC50
[23] = Homo sapiens, Table 5, A549, read-out: IC50
[24] = Homo sapiens, A549/Taxol, Table 5, A549/Taxol, read-out: IC50
[25] = Table 5, BEAS-2B normal cells, read-out: IC50
[26] = Table 5, NCI-H520, read-out: IC50
[27] = Table 5, SPC-A-1, read-out: IC50
[28] = Table 5, A549/Taxol, read-out: IC50
[29] = Homo sapiens, Table 5, BEAS-2B normal cells, read-out: IC50
[30] = four tested cancer cell lines taken together (SPC-A-1, NCI-H520, A549, A549/Taxol)
[31] = Homo sapiens, NCI-H520, Table 5, NCI-H520, read-out: IC50
[32] = Homo sapiens, A549, Table 5, A549, read-out: IC50

COc1ccc(CCc2cc(=O)c3cc(OC)c(O)cc3o2)cc1 [Compound 6, 7-hydroxy-6-methoxy-2-[2-(4-methoxyphenyl)ethyl]-4H-1-benzopyran-4-one]
IC50 [1, 20]: > 40000 nM | IC50 [2, 21]: 1840 ± 160 nM | IC50 [3, 22]: 1130 ± 30 nM | IC50 [4, 23]: 1520 ± 60 nM | IC50 [5, 24]: 910 ± 10 nM

aquilaside B
IC50 (SK-MEL cells): 17000 nM

N.N.[Cl][Pt][Cl] [Cisplatin]
IC50 [6]: 2.00 ± 0.93 µg/mL | IC50 ([1]; Table 1, BEAS-2B normal cells): 9.14 ± 1.41 µg/mL | IC50 ([1]; Table 2, BEAS-2B normal cells): 7.36 ± 0.56 µg/mL | IC50 ([1]; Table 3, BEAS-2B normal cells): > 12 µg/mL | IC50 ([1]; Table 4, BEAS-2B normal cells): 8.86 ± 1.32 µg/mL | IC50 [1, 25]: 34900 ± 1160 nM | IC50 ([2]; Table 1, NCI-H520): 6.69 ± 1.46 µg/mL | IC50 ([2]; Table 2, NCI-H520): 3.12 ± 0.18 µg/mL | IC50 ([2]; Table 3, NCI-H520): 3.75 ± 0.52 µg/mL | IC50 ([2]; Table 4, NCI-H520): 3.11 ± 0.22 µg/mL | IC50 [2, 26]: 12000 ± 600 nM | IC50 [7]: 3.16 ± 0.97 µg/mL | IC50 [8]: 0.16 ± 0.01 µg/mL | IC50 [9]: 2.00 ± 0.52 µg/mL | IC50 [10]: 1.97 ± 1.30 µg/mL | IC50 [11]: 5.29 ± 0.48 µg/mL | IC50 ([3]; Table 1, SPC-A-1): 1.76 ± 0.40 µg/mL | IC50 ([3]; Table 2, SPC-A-1): 3.10 ± 0.13 µg/mL | IC50 ([3]; Table 3, SPC-A-1): 3.06 ± 1.07 µg/mL | IC50 ([3]; Table 4, SPC-A-1): 2.49 ± 0.07 µg/mL | IC50 [3, 27]: 21400 ± 350 nM | IC50 [12]: 1.53 ± 0.11 µg/mL | IC50 [13]: 2.85 ± 0.272 µg/mL | IC50 [14]: 3.78 ± 0.79 µg/mL | IC50 ([4]; Table 1, A549): 3.83 ± 0.79 µg/mL | IC50 ([4]; Table 2, A-549): 4.99 ± 0.08 µg/mL | IC50 ([4]; Table 3, A549): 3.02 ± 0.59 µg/mL | IC50 ([4]; Table 4, A549): 2.28 ± 0.57 µg/mL | IC50 ([4]; Table 5, A549, read-out: IC50): 13500 ± 640 nM | IC50 [15]: 1.14 ± 0.152 µg/mL | IC50 ([5]; Table 2, A549/Taxol): 4.29 ± 0.26 µg/mL | IC50 ([5]; Table 3, A549/Taxol): 3.41 ± 0.47 µg/mL | IC50 ([5]; Table 4, A549/Taxol): 4.13 ± 0.86 µg/mL | IC50 [5, 28]: 15000 ± 930 nM | IC50 [16]: 1.38 ± 0.23 µg/mL | IC50 [17]: 3.67 ± 0.97 µg/mL

CC(=O)O[C@H]1C(=O)[C@@]2(C)[C@H]([C@H](OC(=O)c3ccccc3)[C@]3(O)C[C@H](OC(=O)[C@H](O)[C@@H](NC(=O)c4ccccc4)c4ccccc4)C(C)=C1C3(C)C)[C@]1(OC(C)=O)CO[C@@H]1C[C@@H]2O [Paclitaxel]
IC50 ([6]; Homo sapiens, MCF7, read-out: IC50): < 0.007 µg/mL | IC50 ([1]; Homo sapiens, BEAS-2B, Table 1, BEAS-2B normal cells, read-out: IC50): 3.66 ± 0.3 µg/mL | IC50 ([1]; Homo sapiens, BEAS-2B, Table 2, BEAS-2B normal cells, read-out: IC50): 1.85 ± 0.19 µg/mL | IC50 ([1]; Homo sapiens, BEAS-2B, Table 3, BEAS-2B normal cells, read-out: IC50): 2.04 ± 0.11 µg/mL | IC50 ([1]; Homo sapiens, BEAS-2B, Table 4, BEAS-2B normal cells, read-out: IC50): 1.94 ± 0.11 µg/mL | IC50 [1, 20]: > 5000 nM | IC50 ([2]; Homo sapiens, Table 1, NCI-H520, read-out: IC50): < 0.007 µg/mL | IC50 [2, 21]: < 8 nM | IC50 ([7]; Homo sapiens, read-out: IC50): < 0.007 µg/mL | IC50 ([8]; Homo sapiens, read-out: IC50): < 0.008 µg/mL | IC50 ([9]; Homo sapiens, read-out: IC50): < 0.007 µg/mL | IC50 ([10]; Homo sapiens, read-out: IC50): < 0.007 µg/mL | IC50 ([11]; Homo sapiens, read-out: IC50): < 0.007 µg/mL | IC50 ([3]; Homo sapiens, SPCA1, Table 1, SPC-A-1, read-out: IC50): < 0.007 µg/mL | IC50 [3, 22]: < 8 nM | IC50 ([12]; Homo sapiens, read-out: IC50): 0.15 ± 0.02 µg/mL (≈ 176 nM) | IC50 ([13]; Homo sapiens, read-out: IC50): 0.008 ± 0.001 µg/mL (≈ 9.37 nM) | IC50 ([14]; Homo sapiens, read-out: IC50): < 0.007 µg/mL | IC50 [18]: 0.02 ± 0.02 µg/mL (≈ 23.4 nM) | IC50 ([4]; Homo sapiens, Table 1, A549, read-out: IC50): < 0.007 µg/mL | IC50 [4, 23]: < 8 nM | IC50 ([15]; Homo sapiens, read-out: IC50): < 0.007 µg/mL | IC50 ([5]; Homo sapiens, A549/Taxol, Table 2, A549/Taxol, read-out: IC50): 0.54 ± 0.09 µg/mL | IC50 ([5]; Homo sapiens, A549/Taxol, Table 3, A549/Taxol, read-out: IC50): 1.45 ± 0.12 µg/mL | IC50 ([5]; Homo sapiens, A549/Taxol, Table 4, A549/Taxol, read-out: IC50): 0.96 ± 0.05 µg/mL | IC50 [5, 24]: 1800 ± 130 nM | IC50 ([16]; Homo sapiens, read-out: IC50): < 0.007 µg/mL | IC50 ([17]; Homo sapiens, read-out: IC50): < 0.007 µg/mL

CC(=O)OC(C)(C)CCC(=O)[C@](C)(O)[C@H]1[C@H](O)C[C@@]2(C)[C@@H]3CC=C4[C@@H](C=C(O)C(=O)C4(C)C)[C@]3(C)C(=O)C[C@]12C [Compound 2, 23,24-dihydrocucurbitacin E]
IC50 [1, 29]: > 40000 nM | IC50 [19, 30]: inactive | IC50 [2, 31]: > 40000 nM | IC50 [3, 22]: > 40000 nM | IC50 [4, 32]: > 40000 nM | IC50 [5, 24]: > 40000 nM

aquilaside C
IC50 (SK-MEL cells): 12000 nM

COc1cc(O)c2c(c1)O[C@H](c1ccc(O)cc1)CC2=O [Compound 5, (−)-(2S)-5,4ʹ-dihydroxy-7-methoxyflavanone]
IC50 [1, 20]: > 40000 nM | IC50 [2, 21]: > 40000 nM | IC50 [3, 22]: > 40000 nM | IC50 [4, 23]: > 40000 nM | IC50 [5, 24]: > 40000 nM

cucurbitacin B [Compound 4]
IC50 [1, 25]: 14400 ± 1360 nM | IC50 [19, 30]: ≤ 30 nM | IC50 [2, 26]: 2 nM | IC50 [3, 27]: 16 nM | IC50 ([4]; Table 5, A549, read-out: IC50): 30 nM | IC50 [5, 28]: 7 ± 1 nM

CC(=O)OC(C)(C)/C=C/C(=O)[C@](C)(O)[C@H]1[C@H](O)C[C@@]2(C)[C@@H]3CC=C4[C@@H](C=C(O)C(=O)C4(C)C)[C@]3(C)C(=O)C[C@]12C [Compound 3, cucurbitacin E]
IC50 [1, 29]: 3460 ± 130 nM | IC50 ([19]; Homo sapiens): ≤ 30 nM | IC50 ([2]; Table 5, NCI-H520, listed as Cucurbitacin E, read-out: IC50): ≤ 20 nM | IC50 [2, 26]: 1 nM | IC50 ([3]; Table 5, SPC-A-1, listed as Cucurbitacin E, read-out: IC50): ≤ 20 nM | IC50 [3, 27]: 5 nM | IC50 [4, 32]: ≤ 20 nM | IC50 ([4]; Table 5, A549, read-out: IC50): 20 nM | IC50 ([5]; Table 5, A549/Taxol, listed as Cucurbitacin E, read-out: IC50): ≤ 20 nM | IC50 [5, 28]: 2 nM

CC(=O)OC(C)(C)C=CC(=O)C(C)(O)C1C(O)CC2(C)C3CC=C4C(CC(=O)OC4(C)C)C3(C)C(=O)CC12C (stereo not shown) [Compound 1, aquilarolide A]
IC50 [1, 29]: 17900 ± 300 nM | IC50 [2, 31]: 160 ± 10 nM | IC50 [3, 22]: 560 ± 20 nM | IC50 [4, 32]: 350 ± 60 nM | IC50 [5, 24]: 200 ± 10 nM
